Converted amounts (≈) assume the structure as drawn. Where two headings read alike, the source gives them in different places.
Columns and labels:
[1] = cited from earlier work
[2] = tested on: human pluripotent stem cells; parameters: method as in PMID 24154490; details: cited from earlier work
[3] = tested on: µP-hPSC colonies (H9) under mesoendoderm induction; assay: µP-hPST: mesoendoderm pattern disruption in µP-hPSC colonies and two-step teratogen classification; details: for Teratogenicity in µP-hPST / Teratogenicity in µP-hPST (in words): two-step classification rule
[4] = cited from earlier work; for In vivo teratogenicity (in words): Supplementary Tables S2, S3; for In vivo teratogenicity: Table 1, known teratogenicity
hPSC = tested on: hPSC; parameters: method as in PMID 24123775; details: cited from earlier work
[5] = tested on: µP-hPSC colonies (H9) under mesoendoderm induction; parameters: method as in earlier work; details: compounds tested previously; cited from earlier work
[6] = tested on: human embryonic cell line H9; assay: Cytotoxicity assay (MTS), embryonic cytotoxicity; format: cell-based; details: H9 cells, 3 days, 25% inhibitory concentration
Method: (§1) A set of 30 compounds of known teratogenicity was selected to establish and validate the µP-hPST (Table 1). The compounds include equal number of non-teratogens and teratogens, and differ in chemical property and therapeutic usage. Before tested in the µP-hPSC colonies, the cytotoxicity profile of each compound was acquired. Two cell lines, hPSC line H9 and adult human dermal fibroblast line aHDF, were tested to represent embryonic cytotoxicity and general cytotoxicity of the compound respectively (Supplementary Figs S1, S2). The IC25 values, which were the 25% inhibitory concentrations, were calculated as the highest non-cytotoxic concentrations of the compound (Table 2, Fig. 1).
(§2) Human embryonic cell line H9 (WiCell Research Institute, Inc) and adult human dermal fibroblast (aHDF, Lonza) were cultured as previously described. Briefly, H9 cells were cultured in tissue culture plates coated with Matrigel^TM (354277, BD Biosciences) in mTeSR^TM1 medium (05850, StemCell^TM Technologies). Dispase (07923, StemCell^TM Technologies) treatment and mechanical scraping were applied during normal subculture. The aHDF cells was cultured in DMEM medium (10569-010, Gibco), supplemented with 10% FBS (SV30160.03, Thermo Scientific Hyclone) and 1% Pen-Strep (09367-34, Nacalai Tesque). Cells were subcultured every 5–6 days using 0.25% Trypsion-EDTA (25200-114, Gibco) to detach the cells.
(§3) The adverse effect of test compounds on cell proliferation and viability was detected using CellTiter 96® AQueous One Solution Cell Proliferation Assay (MTS, G3580, Promega). 10,000 H9 cells or 500 aHDF cells were seeded in 96-well tissue culture plates. For H9 cells, Matrigel^TM was coated before seeding. For each compound, 8 concentrations from serial 5-fold dilutions were tested besides the vehicle controls. Cells were cultured for 3 days with medium half change every day before cell viability was measured. Each drug was tested in three independent runs and its IC25 values (inhibitory concentrations which can cause 25% of reduction in cell number) were acquired by logistic regression using OriginPro 9.

[7] = tested on: adult human dermal fibroblasts (aHDF); assay: Cytotoxicity assay (MTS), general cytotoxicity; format: cell-based; details: aHDF cells, 3 days, 25% inhibitory concentration
Method: as §1, §2, §3

[8] = tested on: mouse embryonic stem cell; parameters: method as in PMID 19678733; details: cited from earlier work
[9] = tested on: µP-hPSC colonies (H9) under mesoendoderm induction
[10] = human plasma, ref U.S. FDA website, EMA website or published journals (Supplementary Table S1)

Compound | Cmax [1, 10] [ng/mL] | Teratogenicity in other in vitro assays [2] | Teratogenicity in µP-hPST [3] | In vivo teratogenicity (in words) [4] | In vivo teratogenicity [4] | Teratogenicity in µP-hPST (in words) [3] | LDC [5] | IC25H9 [6] [µg/mL] | IC25aHDF [7] [µg/mL] | also measured
O=c1[nH]cc(F)c(=O)[nH]1 [5-Fluorouracil] | 48400 | TER[6], [7] | TER | Teratogen | TER | – | – | – | – | Mesoendoderm pattern disruption seen in T fluorescent images ([3]; 3 days of compound exposure, in words): promote both cell differentiation and migration; Teratogenicity in other in vitro assays (hPSC): TER[6], [7]
CC(C)(S)[C@@H](N)C(=O)O [D-penicillamine] | – | – | – | Teratogen | – | Teratogen | 200 µg/mL | – | – | Cmax ([1]; compounds tested previously): 200000 ng/mL
COc1cccc2c1C(=O)c1c(O)c3c(c(O)c1C2=O)C[C@@](O)(C(=O)CO)C[C@@H]3O[C@H]1C[C@H](N)[C@H](O)[C@H](C)O1 [Doxorubicin] | 370 | TER[7] | TER | Teratogen | TER | – | – | 0.0002 (≈ 0.000368 µM) | – | IC25H9 ([6]; listed as Doxirubicin): < 1 µg/mL; IC25aHDF ([7]; listed as Doxirubicin): < 1 µg/mL
COc1ccc2nc([S@@+]([O-])Cc3ncc(C)c(OC)c3C)[nH]c2c1 [Esomeprazole] | 1620 | NON[7] | NON | – | NON | – | – | 38.9 (≈ 113 µM) | 42.1 (≈ 122 µM) | –
NS(=O)(=O)c1cc(C(=O)O)c(NCc2ccco2)cc1Cl [Furosemide] | – | – | TER | Teratogen | TER | teratogen | – | 362 (≈ 1090 µM) | 30 (≈ 90.7 µM) | Classification in mEST (in words) [8]: misclassified; Teratogenicity in other in vitro assays [8]: NON[28]
C[C@](N)(Cc1ccc(O)c(O)c1)C(=O)O [Methyldopa] | 7500 | NON[7] | NON | – | NON | – | – | 23.2 (≈ 110 µM) | 15.9 (≈ 75.3 µM) | –
CC1=C(/C=C/C(C)=C/C=C/C(C)=C/C(=O)O)C(C)(C)CCC1 [Retinoid acid] | – | – | – | Teratogen | – | – | 0.00036 µg/mL | – | – | Cmax ([1]; compounds tested previously): 347 ng/mL; Step1: Is LDC <= IC25 aHDF & IC25H9? [9]: Y; Teratogenicity in µP-hPST (in words) [9]: Teratogen
O=C1CCC(N2C(=O)c3ccccc3C2=O)C(=O)N1 (centres unmarked) [Thalidomide] | – | – | – | Teratogen | – | Teratogen | 30 µM | – | – | Cmax ([1]; compounds tested previously, read-out: Cmax): 10.9 µM
CCCC(CCC)C(=O)O [Valproic acid] | – | – | – | Teratogen | – | Teratogen | 100 µM | – | – | –
COc1cc2c(Nc3ccc(Br)cc3F)ncnc2cc1OCC1CCN(C)CC1 [Vandetanib] | 400 | TER[7] | TER | Teratogen | TER | – | – | 0.3 (≈ 0.631 µM) | 1.1 (≈ 2.31 µM) | –
O=C1Cc2cc(CCN3CCN(c4nsc5ccccc45)CC3)c(Cl)cc2N1 [Ziprasidone] | 200 | TER[7] | TER | Teratogen | TER | – | – | 14.4 (≈ 34.9 µM) | 2.7 (≈ 6.54 µM) | –

— PMC5561212, “In Vitro Micropatterned Human Pluripotent Stem Cell Test (µP-hPST) for Morphometric-Based Teratogen Screening” (Scientific Reports, 2017)
